Among the data in BindingDB's records for doi:10.7270/Q2DR2SWV (Vanderbilt Screening Center For Gpcrs, Ion Channels and …, 2010) are EC50 values, retold here.

pEC50: −log10 of the molar value.

Sequence of Metabotropic glutamate receptor 4 [Q124R] (P31423 33-912 Q124R limits assumed): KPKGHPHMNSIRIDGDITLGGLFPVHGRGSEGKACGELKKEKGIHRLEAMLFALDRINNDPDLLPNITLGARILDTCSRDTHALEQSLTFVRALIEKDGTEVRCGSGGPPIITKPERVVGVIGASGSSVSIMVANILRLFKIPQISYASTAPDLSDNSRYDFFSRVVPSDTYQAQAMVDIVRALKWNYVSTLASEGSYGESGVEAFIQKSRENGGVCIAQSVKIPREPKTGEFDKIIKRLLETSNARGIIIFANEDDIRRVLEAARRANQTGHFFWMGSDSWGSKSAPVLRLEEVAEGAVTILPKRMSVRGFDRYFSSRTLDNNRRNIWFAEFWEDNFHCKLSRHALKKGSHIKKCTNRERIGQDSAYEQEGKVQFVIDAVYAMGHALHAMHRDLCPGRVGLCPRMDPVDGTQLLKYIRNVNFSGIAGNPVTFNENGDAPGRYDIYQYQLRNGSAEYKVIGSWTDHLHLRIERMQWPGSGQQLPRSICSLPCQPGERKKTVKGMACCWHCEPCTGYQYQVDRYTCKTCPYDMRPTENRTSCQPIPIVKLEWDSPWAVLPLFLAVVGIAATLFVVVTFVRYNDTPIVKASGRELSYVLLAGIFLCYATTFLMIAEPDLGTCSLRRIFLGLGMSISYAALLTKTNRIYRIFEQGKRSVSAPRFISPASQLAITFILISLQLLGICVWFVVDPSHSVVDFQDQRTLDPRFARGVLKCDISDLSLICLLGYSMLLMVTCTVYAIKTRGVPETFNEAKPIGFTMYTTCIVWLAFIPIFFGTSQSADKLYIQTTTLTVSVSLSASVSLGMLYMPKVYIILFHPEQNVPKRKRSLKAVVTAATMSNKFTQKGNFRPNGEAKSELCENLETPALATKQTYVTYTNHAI

This assay addresses Metabotropic glutamate receptor 4 [Q124R] (Rattus norvegicus, UniProt P31423, Q124R). In words: PubChem AID 2185.
On to `COc1cc(NC(=O)c2ccccn2)ccc1F`, for which the pEC50 was 6.43.
In the case of `COc1ccc(NC(=O)c2ccccn2)cc1Cl`, the negative-log EC50 (pEC50) was 6.13.
Take `COc1ccc(NC(=O)c2ccccn2)cc1OC`: the pEC50 is 5.63.
Compound `COc1cc(NC(=O)c2ccccn2)ccc1C` had a pEC50 of 6.68.
For the compound `O=C(Nc1ccc(F)c(C(F)(F)F)c1)c1ccccn1`, the pEC50 is 6.00.
The compound `O=C(Nc1ccc(Cl)c(C(F)(F)F)c1)c1ccccn1` showed a pEC50 of 5.77.
In turn, `CC1(C)c2c1c(O)n(-c1ccc(NC(=O)c3ccccn3)cc1Cl)c2O` [N-[3-chloranyl-4-[(1S,5R)-6,6-dimethyl-2,4-bis(oxidanylidene)-3-azabicyclo[3.1.0]hexan-3-yl]phenyl]pyridine-2-carboxamide] showed a pEC50 of 6.16.
In the case of `O=C(Nc1ccc(-n2c(O)cc(-c3ccccc3)c2O)c(Cl)c1)c1ccccn1` [N-[3-chloro-4-(2,5-dioxo-3-phenyl-1-pyrrolidinyl)phenyl]-2-pyridinecarboxamide], the pEC50 is 6.31.
Compound `O=C(Nc1ccc(-n2c(O)ccc2O)c(Cl)c1)c1ccccn1` [N-[3-chloro-4-(2,5-dioxopyrrolidin-1-yl)phenyl]pyridine-2-carboxamide] showed a pEC50 of 5.16.
Compound `O=C(Nc1ccc(-n2c(O)c3c(c2O)CCCC3)c(Cl)c1)c1ccccn1` [VU0366515-1] showed a pEC50 of 6.19.
Take `O=C(Nc1ccc(-n2c(O)c3c(c2O)[C@H]2CC[C@@H]3O2)c(Cl)c1)c1ccccn1` [VU0405235-1]: the pEC50 is 5.64.
